Data on one molecule can be found in patent publication US20110098221A1, “INHIBITORS OF Akt ACTIVITY” (priority 2008, published 2011).

This experiment concerns the target T1, full length AKT1 (Homo sapiens, UniProt P31749).
T1 construct: His tag (from vector pFastBacHTb) (N); made in house; host or cells: baculovirus; Sf9 / T. ni insect cells
As to the kind of experiment: Full-length AKT enzyme assay (substrate phosphorylation, SPA). It counts as biochemical. Particulars: in at least one experimental run; pIC50 = -log(IC50), IC50 in molar units; 4 uM ATP, 10 nM activated enzyme; read-out: pIC50 against full length AKT1 (converted).

T1 sequence (P31749 whole entry): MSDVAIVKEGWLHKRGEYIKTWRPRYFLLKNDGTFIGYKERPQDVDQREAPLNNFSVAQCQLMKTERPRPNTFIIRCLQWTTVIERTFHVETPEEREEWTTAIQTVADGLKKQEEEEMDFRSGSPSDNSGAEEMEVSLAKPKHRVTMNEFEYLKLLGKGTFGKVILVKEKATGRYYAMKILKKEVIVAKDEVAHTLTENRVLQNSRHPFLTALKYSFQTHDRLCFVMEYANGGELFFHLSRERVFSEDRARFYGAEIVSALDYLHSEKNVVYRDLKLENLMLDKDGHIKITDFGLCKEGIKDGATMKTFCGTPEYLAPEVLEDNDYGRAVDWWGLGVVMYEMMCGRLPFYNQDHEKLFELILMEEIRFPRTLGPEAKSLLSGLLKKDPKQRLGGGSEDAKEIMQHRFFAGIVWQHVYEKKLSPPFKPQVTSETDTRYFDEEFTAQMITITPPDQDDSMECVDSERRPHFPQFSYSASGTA

For `Cn1nccc1-c1cnc(C(=O)N[C@H](CN)Cc2cccc(F)c2)s1` [Example 1, N-{(1S)-2-amino-1-[(3-fluorophenyl)methyl]ethyl}-5-(1-methyl-1H-pyrazol-5-yl)-1,3-thiazole-2-carboxamide], the IC50 is 6.31 nM.
